In brackets after ≈: the same amount, converted by molar mass. Where two headings read alike, the source gives them in different places.
How the values were obtained:
M-HeLa = test: MTT cell viability test, M-HeLa; format: cell-based, human; settings: Homo sapiens, M-HeLa; incubation time 24 h
Method: (§1) Human cell cultures of tumor origin—HeLa (cervical tumor), HuTu 80 (human duodenal adenocarcinoma), ChangLiver (human liver HeLa-like line), and normal cell line WI38, VA 13 subline 2RA is a diploid human cell strain composed of fibroblasts derived from healthy lung tissue provided by The Gamaleya National Center for Epidemiology and Microbiology, as well as the Institute of Cytology of the Russian Academy of Sciences. They were grown in a nutrient medium DMEM (PanEco, Moscow, Russia) and MEM (PanEco, Moscow, Russia), containing fetal bovine serum (10% by volume) (ThermoFisher Scientific, Paisley, UK), Glutamax (2 mM) (Gibco, Scotland, UK), and penicillin-streptomycin (1% by volume) (PanEco, Moscow, Russia). The cultivation was carried out at 37 °C in a humidified CO2 atmosphere (5%).
(§2) Cell viability was determined by the MTT test. Cells were seeded in a 96-well plate in the amount of 1 × 10^4 cells/200 µL of complete nutrient medium and cultured at 37 °C in CO2 (5%). After 24 h of incubation, various concentrations of test compounds in the range of 0.1 to 100 μM were added to the cell cultures, and then the cells were cultured under the same conditions for 24 and 72 h. For each concentration, the experiment was carried out in triplicate.
(§3) All compounds were dissolved in DMSO and then diluted with the medium to the required concentration. […] The DMSO was also added to the control wells in a volume of 1%. After the incubation time, MTT (3-(4,5-dimethylthiazol-2-yl)-2,5-diphenyltetrazolium bromide, 5 mg/mL) was added to each well, and plates were additionally incubated for 2 h (until the characteristic color appeared).
(§4) Using a plate analyzer (Cytation3, BioTech Instruments Inc., Winooski, VT, USA), the optical density was determined at 530 nm.
(§5) The IC50 parameter was calculated using the AAT Bioquest program.
(§6) The selectivity index (SI) is calculated as the ratio between the IC50 for normal cells and the IC50 for cancer cells.

HuTu 80 = test: MTT cell viability test, HuTu 80; format: cell-based, human; settings: Homo sapiens, HuTu80; incubation time 24 h
Method: as §1, §2, §3, §4, §5, §6

Chang Liver = test: MTT cell viability test, Chang liver; format: cell-based; settings: Homo sapiens, incubation time 24 h
Method: as §1, §2, §3, §4, §5

[1] = system: Fusarium oxysporum IBPPM 543; test: Mycelial radial growth inhibition; format: cell-based; settings: Fusarium oxysporum; for inhibition at 10 µg/mL / inhibition at 15 µg/mL / inhibition at 30 µg/mL / inhibition at 60 µg/mL: read-out: Inhibition value, I (%)
From the text: (§7) Plant pathogenic bacterial strains Micrococcus luteus B-109, Pectobacterium atrosepticum 1043, Pectobacterium carotovorum subsp. carotovorum MI, Pseudomonas fluorescens EL-2.1, and Xanthomonas campestris B-610 and the fungal strain Fusarium oxysporum IBPPM 543 were from the Collection of Rhizosphere Microorganisms, IBPPM RAS (WFCC no. 975, WDCM no. 1021) (CM IBPPM, http://collection.ibppm.ru). The pathogenic fungus Phytophthora cactorum VKM F-985, provided by the All-Russian Collection of Microorganisms (VKM) and deposited at the A.E. Favorsky Irkutsk Institute of Chemistry, SB RAS, was also used as a test organism. Bacteria M. luteus, P. carotovorum subsp. carotovorum, P. atrosepticum, and P. fluorescens were grown in a meat–peptone medium (BP), and X. campestris was grown in the medium with glucose, yeast extract, and calcium carbonate (GYCa). Solid media contained Bacto agar (18 g/L); pH was adjusted to 7.2–7.4. All bacterial cultures were grown at 28 °C. The mycelial cultures of F. oxysporum and P. cactorum were grown on a glucose–peptone–yeast (GPY) nutrient medium at 27 °C. For inoculum preparation, both fungal strains were initially grown on the agar GPY in Petri dishes and then transferred into the seed medium by punching out 5 mm of the agar plate culture with a self-designed cutter.
(§8) For the fungicidal activity analysis, radial growth (colony diameters) of the fungi on a solid medium in the absence and in the presence of the compounds 5a–e and 7a–c solutions at various concentrations were compared. The method consisted of the following: A sterile GPY agar medium (20.0 mL), which was melted and then allowed to cool to approximately 60 °C, was mixed with the precisely measured volumes of the solutions under question and poured into a sterile Petri dish (90 mm i.d.). After the solidification of GPY agar, the media were inoculated by the fungus using 10-day-old cultures of F. oxysporum or P. cactorum. The inoculation was conducted by transferring a 5-mm (i.d.) GPY-agar block covered with mycelium to the center of the Petri dish, followed by incubation in a thermostat at 27 °C. The fungicidal effect was scored by the size of the mycelium colony on a Petri dish compared to the control without fungicidal admixtures to GPY agar. Each treatment was performed in at least four replicates in two independent experiments. The observation period ended when the control Petri dish was filled with mycelium (usually after 12 days). […] The solutions of the compounds were prepared with a concentration of 2 mmol/L (stock solution). For comparison, test compounds were also commonly applied as disinfecting agents, and antibiotics were used as a positive control.

[2] = system: Phytophthora cactorum VKM F-985; test: Mycelial radial growth inhibition; format: cell-based; settings: Phytophthora cactorum; for inhibition at 10 µg/mL / inhibition at 15 µg/mL / inhibition at 30 µg/mL / inhibition at 60 µg/mL: read-out: Inhibition value, I (%)
From the text: as §7, §8

[3] = system: Pectobacterium carotovorum subsp. carotovorum MI; test: Agar-well diffusion, bactericidal activity; format: cell-based
From the text: as §7
(§9) The antibacterial and antifungal activities of the compounds were explored using the agar-well diffusion method and the technique of mycelial radial growth inhibition. The method of diffusion in agar (measuring the diameter of growth inhibition zones) was used to determine the bactericidal activity. The 6-mm wells were made in agar medium (GYCa for Xanthomonas campestris or BP for other bacteria). Bacterial suspensions were distributed over the agar surface, and the tested compound’s solution (150 μL) was added to each well. The width of growth inhibition zones around the wells was determined after incubation for 36–40 h.

[4] = system: Pectobacterium atrosepticum 1043; test: Agar-well diffusion, bactericidal activity; format: cell-based
From the text: as §7, §9

[5] = system: Pseudomonas fluorescens EL-2.1; test: Agar-well diffusion, bactericidal activity; format: cell-based
From the text: as §7, §9

Micrococcus luteus B-109 = test: Agar-well diffusion, bactericidal activity; format: cell-based
From the text: as §7, §9

[6] = system: Xanthomonas campestris B-610; test: Agar-well diffusion, bactericidal activity; format: cell-based
Method: Bacteria M. luteus, P. carotovorum subsp. carotovorum, P. atrosepticum, and P. fluorescens were grown in a meat–peptone medium (BP), and X. campestris was grown in the medium with glucose, yeast extract, and calcium carbonate (GYCa). Solid media contained Bacto agar (18 g/L); pH was adjusted to 7.2–7.4. […] For inoculum preparation, both fungal strains were initially grown on the agar GPY in Petri dishes and then transferred into the seed medium by punching out 5 mm of the agar plate culture with a self-designed cutter.
as §9

Work on `Cc1ccc(CN2C(=O)C(=O)c3cc(F)ccc32)cc1` [Compound 4a, 5-Fluoro-1-(4-methylbenzyl)indoline-2,3-dione] yielded an IC50 (M-HeLa) of 44.7 ± 3.3 µM, an IC50 (HuTu 80) of 44 ± 2.9 µM and a melting point of 111 to 112 °C. For the same compound, the IC50 (Chang Liver) was 80 ± 5.8 µM.
Compound `O=C1C(=O)N(Cc2cccc(C(F)(F)F)c2)c2ccc(F)cc21` [Compound 3e, 5-Fluoro-1-(3-(trifluoromethyl)benzyl)indoline-2,3-dione] has a melting point of 170 to 171 °C.
`N#Cc1c[nH]cc1-c1cccc2c1OC(F)(F)O2` [Fludioxonil, fludioxonil, reference compound] gave an inhibition at 10 µg/mL ([1]; IBPPM543, 72 h) of 18%, an inhibition at 15 µg/mL ([1]; IBPPM543, 72 h) of 21% and an inhibition at 30 µg/mL ([1]; IBPPM543, 72 h) of 26%. It also gave an inhibition at 60 µg/mL ([1]; IBPPM543, 72 h) of 32%, an EC50 ([1]; IBPPM543, 120 h, read-out: EC50, µg/mL at Day 5, F. oxysporum) of 83.3 µg/mL (≈ 336 µM) and an inhibition at 10 µg/mL ([1]; IBPPM543, 120 h) of 23%. It also gave an inhibition at 15 µg/mL ([1]; IBPPM543, 120 h) of 30%, an inhibition at 30 µg/mL ([1]; IBPPM543, 120 h) of 33% and an inhibition at 60 µg/mL ([1]; IBPPM543, 120 h) of 35%. It also gave an inhibition at 10 µg/mL ([1]; IBPPM543, 168 h) of 6%, an inhibition at 15 µg/mL ([1]; IBPPM543, 168 h) of 20% and an inhibition at 30 µg/mL ([1]; IBPPM543, 168 h) of 23%. It also gave an inhibition at 60 µg/mL ([1]; IBPPM543, 168 h) of 25%, an inhibition at 10 µg/mL ([1]; IBPPM543, 216 h) of 4% and an inhibition at 15 µg/mL ([1]; IBPPM543, 216 h) of 5%. For the same compound, the inhibition at 30 µg/mL ([1]; IBPPM543, 216 h) was 8%, the inhibition at 60 µg/mL ([1]; IBPPM543, 216 h) was 9% and the inhibition at 10 µg/mL ([2]; 72 h) was 36%. The inhibition at 15 µg/mL ([2]; 72 h) was 38%, the inhibition at 30 µg/mL ([2]; 72 h) was 40% and the inhibition at 60 µg/mL ([2]; 72 h) was 52%. For the same compound, the EC50 ([2]; 120 h, read-out: EC50, µg/mL at Day 5, P. cactorum) was 29.5 µg/mL (≈ 119 µM), the inhibition at 10 µg/mL ([2]; 120 h) was 38% and the inhibition at 15 µg/mL ([2]; 120 h) was 46%. For the same compound, the inhibition at 30 µg/mL ([2]; 120 h) was 51%, the inhibition at 60 µg/mL ([2]; 120 h) was 57% and the inhibition at 10 µg/mL ([2]; 168 h) was 35%. The inhibition at 15 µg/mL ([2]; 168 h) was 42%, the inhibition at 30 µg/mL ([2]; 168 h) was 46% and the inhibition at 60 µg/mL ([2]; 168 h) was 49%. The inhibition at 10 µg/mL ([2]; 216 h) was 9%, the inhibition at 15 µg/mL ([2]; 216 h) was 17% and the inhibition at 30 µg/mL ([2]; 216 h) was 23%. For the same compound, the inhibition at 60 µg/mL ([2]; 216 h) was 29%.
Compound `O=C1C(=O)N(Cc2ccc(Br)cc2F)c2ccccc21` [Compound 8b] has an IC50 (M-HeLa) of 40 ± 2.8 µM, an IC50 (HuTu 80) of 59.4 ± 4.2 µM and an IC50 (Chang Liver) of 100 ± 8.4 µM.
For `O=C1C(=O)N(Cc2ccc(F)cc2Cl)c2ccccc21` [Compound 8a], the IC50 (M-HeLa) was 50 ± 3.7 µM, the IC50 (HuTu 80) was 64 ± 4.5 µM and the IC50 (Chang Liver) was > 100 µM.
With `[Na+].[O-]Cl` [sodium hypochlorite, reference compound] the “width of the inhibition zone (mm), P. carotovorum subsp. carotovorum” value ([3]; 1000 μg/mL) was 3 mm, the “width of the inhibition zone (mm), P. atrosepticum” value ([4]; 1000 μg/mL) was 4 mm and the “width of the inhibition zone (mm), Ps. fluorescens” value ([5]; 1000 μg/mL) was 4 mm. The “width of the inhibition zone (mm), M. luteus” value (Micrococcus luteus B-109; 1000 μg/mL) was 2.5 mm and the “width of the inhibition zone (mm), X. campestris” value ([6]; 1000 μg/mL) was 4 mm.
Work on `Cc1cc(C)cc(CN2C(=O)C(=O)c3cc(F)ccc32)c1` [Compound 4b, 1-(3,5-Dimethylbenzyl)-5-fluoroindoline-2,3-dione] yielded an IC50 (M-HeLa) of 58.8 ± 4.4 µM, an IC50 (HuTu 80) of 50 ± 3.8 µM and a melting point of 97 to 98 °C. For the same compound, the IC50 (Chang Liver) was 63.2 ± 5.5 µM.
In the case of `N=C(NCCCCCCNC(=N)NC(=N)Nc1ccc(Cl)cc1)NC(=N)Nc1ccc(Cl)cc1` [Chlorohexidin, chlorohexidin, reference compound], the “width of the inhibition zone (mm), P. carotovorum subsp. carotovorum” value ([3]; 500 μg/mL) is reported as 5 mm, the “width of the inhibition zone (mm), P. atrosepticum” value ([4]; 500 μg/mL) is reported as 4 mm and the “width of the inhibition zone (mm), Ps. fluorescens” value ([5]; 500 μg/mL) is reported as 4 mm. The “width of the inhibition zone (mm), M. luteus” value (Micrococcus luteus B-109; 500 μg/mL) was 5 mm and the “width of the inhibition zone (mm), X. campestris” value ([6]; 500 μg/mL) was 5 mm.
